Results from article PMC7269503 (Antimicrobial Agents and Chemotherapy, 2020).
Values after ≈ are worked out from the molar mass of the structure shown. Values joined by “and” are separate entries in the source; they are usually repeats but may differ in a detail not shown here. Identical values can stand only once. Like-named read-outs stand apart in the source and are kept apart here.

Assays:
[1] = lungs of mice; cited from earlier work
[2] = system: M. tuberculosis; conditions: cited from earlier work
[3] = system: M. pinnipedii ATCC BAA-688; assay: MIC by agar proportion method, standard strain; format: cell-based; conditions: ATCCBAA688; M. pinnipedii ATCC BAA-688; agar proportion method; read-out: MIC
[4] = system: M. tuberculosis ATCC 35822 (H37Rv INH-R); assay: MIC by agar proportion method, standard strain; format: cell-based; conditions: Mycobacterium tuberculosis; […]; agar proportion method; read-out: MIC
[5] = system: M. tuberculosis ATCC 35820 (H37Rv SM-R); assay: MIC by agar proportion method, standard strain; format: cell-based; conditions: Mycobacterium tuberculosis; […]; agar proportion method; read-out: MIC
[6] = system: M. tuberculosis Kurono; assay: Monotherapy in a mouse model of chronic TB; format: in vivo
[7] = system: M. tuberculosis ATCC 35838 (H37Rv RIF-R); assay: MIC by agar proportion method, standard strain; format: cell-based; conditions: Mycobacterium tuberculosis; […]; agar proportion method; read-out: MIC
[8] = in vivo; conditions: ICR, mouse
[9] = system: clinically isolated M. tuberculosis strains; format: cell-based; conditions: summary in abstract
[10] = system: M. tuberculosis ATCC 35837 (H37Rv EMB-R); assay: MIC by agar proportion method, standard strain; format: cell-based; conditions: Mycobacterium tuberculosis; […]; agar proportion method; read-out: MIC
[11] = system: M. microti ATCC 11152; assay: MIC by agar proportion method, standard strain; format: cell-based; conditions: ATCC11152; M. microti ATCC 11152; agar proportion method; read-out: MIC
[12] = system: M. caprae ATCC BAA-824; assay: MIC by agar proportion method, standard strain; format: cell-based; conditions: ATCCBAA824; M. caprae ATCC BAA-824; agar proportion method; read-out: MIC
[13] = system: M. tuberculosis Kurono; format: in vivo; conditions: oral 5 days per week, 4 weeks; OPC-167832 0.625, DMD 0.625, BDQ 5, LVX 300, LZD 100 mg/kg
[14] = system: M. tuberculosis ATCC 27294 (H37Rv); assay: MIC by agar proportion method, standard strain; format: cell-based; conditions: Mycobacterium tuberculosis; ATCC 27294 (H37Rv); agar proportion method; […]; read-out: MIC
[15] = system: M. africanum ATCC 25420; assay: MIC by agar proportion method, standard strain; format: cell-based; conditions: ATCC25420; M. africanum ATCC 25420; agar proportion method; read-out: MIC
[16] = system: standard strains of nonmycobacterial aerobic and anaerobic bacteria; assay: Activity against nonmycobacterial bacteria; format: cell-based; conditions: data not shown
[17] = system: intracellular M. tuberculosis H37Rv; assay: microbe, parasite or virus in culture; format: cell-based
[18] = system: M. tuberculosis ATCC 35812 (Kurono); assay: MIC by agar proportion method, standard strain; format: cell-based; conditions: Mycobacterium tuberculosis, ATCC35812; ATCC 35812 (Kurono); agar proportion method; read-out: MIC
[19] = system: M. bovis ATCC BAA-935; assay: microbe, parasite or virus in culture; format: cell-based; conditions: Mycobacterium tuberculosis variant bovis, ATCCBAA935
[20] = lung
[21] = system: intracellular M. tuberculosis Kurono; assay: microbe, parasite or virus in culture; format: cell-based
[22] = system: growing M. tuberculosis H37Rv; format: cell-based
[23] = system: 27 strains of M. tuberculosis; assay: Checkerboard agar dilution assay; format: cell-based; conditions: combined with DMD, MXF, LVX, BDQ, or LZD
Description: FIG 4 In vitro combination effects of OPC-167832 and other anti-TB agents (checkerboard assay). The in vitro combination effects of OPC-167832 and existing anti-TB agents against 27 strains of M. tuberculosis were examined by the checkerboard agar dilution method. CI, confidence interval.
The checkerboard procedure was performed using the MICs of tested agents against the bacterial strains established by an agar dilution method reported previously ([36]). The level of synergy was determined by calculating the FIC index based on the following formulas: ΣFIC = FIC of compound A + FIC of compound B; FIC of compound A = MIC of compound A in combination ÷ MIC of compound A alone; FIC of compound B = MIC of compound B in combination ÷ MIC of compound B alone. The average ΣFIC value was interpreted using the European Committee on Antimicrobial Susceptibility Testing criteria ([37]) with the following values: ≤0.5, synergy; >0.5 to 1, additive effect; >1 to 2, indifference; >2, antagonism). The averages of the ΣFIC values and the 95% confidence intervals for the tested bacterial strains were calculated.

[24] = system: M. tuberculosis ATCC 35828 (H37Rv PZA-R); assay: MIC by agar proportion method, standard strain; format: cell-based; conditions: Mycobacterium tuberculosis; […]; agar proportion method; read-out: MIC

SMILES: O=c1nc(N2CCN(CC3CCCCC3)CC2)sc2c([N+](=O)[O-])cc(C(F)(F)F)cc12 [PBTZ169]
- Kp (tissue to plasma partition coefficient), lungs [1]: 0.415

SMILES: CCOC(=O)NC(=O)c1ccsc1NC(=O)c1nc2ccccc2s1 [TCA1]
- MIC [2]: 190 ng/mL (≈ 506 nM)

SMILES: O=C1CCc2c(OC[C@]3(O)CCN(c4c(F)cc(Cl)cc4F)C[C@H]3O)ccc(F)c2N1 [OPC-167832]
- MIC [3]: 0.5 ng/mL (≈ 1.09 nM)
- MIC [4]: 0.24 ng/mL (≈ 0.525 nM)
- MIC [5]: 1 ng/mL (≈ 2.19 nM)
- lung CFU compared to the vehicle group ([6]; 0.625, 1.25, 2.5, 5 and 10 mg/kg oral daily, 4 weeks, ICR female mice): significantly reduced lung CFU
- minimum effective dose ([6]; mouse model of chronic TB, oral): 0.625 mg/kg
- MIC [7]: 0.5 ng/mL (≈ 1.09 nM)
- Kp [8]: 1.67 to 1.96
- Kp ([8]; female, po): ~2
- Tmax ([8]; female, po): 0.5 to 1 h
- AUC(0-t) ([8]; female, po, 0.625 mg/kg): 283 ng·h/mL
- Cmax ([8]; female, po, 0.625 mg/kg): 162 ng/g
- Tmax ([8]; female, po, 0.625 mg/kg): 1 h
- half-life ([8]; female, po, 0.625 mg/kg, t1/2, lung, 0.625 mg/kg oral, calculated 2 - 8h): 1.4 h
- half-life ([8]; female, po, 0.625 mg/kg, t1/2, plasma, 0.625 mg/kg oral, calculated 2 - 8h): 1.6 h
- AUC(0-t) ([8]; female, po, 1.25 mg/kg): 543 ng·h/mL
- Cmax ([8]; female, po, 1.25 mg/kg): 303 ng/g and 200 ng/mL
- Tmax ([8]; female, po, 1.25 mg/kg): 1 h
- half-life ([8]; female, po, 1.25 mg/kg, t1/2, lung, 1.25 mg/kg oral, calculated 4 - 8h): 2 h
- half-life ([8]; female, po, 1.25 mg/kg, t1/2, plasma, 1.25 mg/kg oral, calculated 2 - 12h): 1.5 h
- AUC(0-t) ([8]; female, po, 2.5 mg/kg): 1140 ng·h/mL
- Cmax ([8]; female, po, 2.5 mg/kg): 314 ng/mL and 651 ng/g
- Tmax ([8]; female, po, 2.5 mg/kg): 0.5 h
- half-life ([8]; female, po, 2.5 mg/kg, t1/2, lung, 2.5 mg/kg oral, calculated 2 - 8h): 1.3 h
- half-life ([8]; female, po, 2.5 mg/kg, t1/2, plasma, 2.5 mg/kg oral, calculated 6 - 12h): 1.3 h
- AUC(0-t) ([8]; female, po, 5 mg/kg): 2650 ng·h/mL
- Cmax ([8]; female, po, 5 mg/kg): 758 ng/mL and 1360 ng/g
- Tmax ([8]; female, po, 5 mg/kg): 1 h
- half-life ([8]; female, po, 5 mg/kg, t1/2, lung, 5 mg/kg oral, calculated 2 - 12h): 2.1 h
- half-life ([8]; female, po, 5 mg/kg, t1/2, plasma, 5 mg/kg oral, calculated 2 - 12h): 2.1 h
- AUC(0-t) ([8]; female, po, 10 mg/kg): 3780 ng·h/mL
- Cmax ([8]; female, po, 10 mg/kg): 1090 ng/mL and 2220 ng/g
- Tmax ([8]; female, po, 10 mg/kg): 1 h
- half-life ([8]; female, po, 10 mg/kg, t1/2, lung, 10 mg/kg oral, calculated 6 - 12h): 2.1 h
- half-life ([8]; female, po, 10 mg/kg, t1/2, plasma, 10 mg/kg oral, calculated 2 - 12h): 1.6 h
- half-life ([8]; female, po, half-life (t1/2), plasma, oral doses 0.625 to 10 mg/kg): 1.3 to 2.1 h
- MICs for Mycobacterium tuberculosis (overall range) [9]: 0.00024 to 0.002 µg/mL
- MIC [10]: 2 ng/mL (≈ 4.38 nM)
- MIC [11]: 1 ng/mL (≈ 2.19 nM)
- MIC [12]: 1 ng/mL (≈ 2.19 nM)
- lung CFU compared to the vehicle group, single agent [13]: significant decrease of lung CFU
- MIC [14]: 0.5 ng/mL (≈ 1.09 nM)
- MIC [15]: 2 ng/mL (≈ 4.38 nM)
- activity against nonmycobacterial aerobic and anaerobic bacteria [16]: minimal or no activity
- concentration at which intracellular bactericidal activity was saturated [17]: ≥ 0.004 µg/mL
- bactericidal activity against intracellular bacilli ([17]; H37Rv in THP-1-derived macrophage-like cells, 3 days): killed the intracellular bacilli
- IC90 ([17]; Mycobacterium tuberculosis, H37RV, THP-1, read-out: 90% inhibitory concentration (IC90)): 4.8 ng/mL (≈ 10.5 nM)
- MIC [18]: 0.5 ng/mL (≈ 1.09 nM)
- MIC [19]: 2 ng/mL (≈ 4.38 nM)
- AUCt ([20]; 0.625 mg/kg oral, t: 8h): 505 ng·h/g
- AUCt ([20]; 1.25 mg/kg oral, t: 8h): 909 ng·h/g
- AUCt ([20]; 2.5 mg/kg oral, t: 8h): 2133 ng·h/g
- AUCt ([20]; 5 mg/kg oral, t: 12h): 4742 ng·h/g
- AUCt ([20]; 10 mg/kg oral, t: 12h): 7410 ng·h/g
- bactericidal activity against intracellular bacilli ([21]; Kurono in THP-1-derived macrophage-like cells, 3 days): killed the intracellular bacilli
- IC90 ([21]; Mycobacterium tuberculosis, THP-1, read-out: 90% inhibitory concentration (IC90)): 2.7 ng/mL (≈ 5.91 nM)
- concentration at which killing activity was achieved [22]: 0.0005 µg/mL
- interactive effect (mean FIC index) [23]: indifferent effect
- MIC [24]: 1 ng/mL (≈ 2.19 nM)
